Data on 20 compounds can be found in PubChem BioAssay AID330 (DTP/NCI, 2004).

Structures are written as SMILES. Values joined by “and” are separate entries in the source; they are usually repeats but may differ in a detail not shown here. Equal values may be shown once. Inconclusive results and toxic doses are left out. Bridge positions count the residues as written; N and C are the ends. Peptide text beside a SMILES is read from it. I, II: the chains in the order shown. * marks the point of attachment. Quinoxaline2carbonyl = O=C(c1cnc2ccccc2n1)*

The test system of this assay is P388 leukemia ip, CD2F1 mice, survival T/C. Description: NCI In Vivo Anticancer Drug Screen. Data for tumor model P388 Leukemia (intraperitoneal) in CD2F1 (CDF1) mice. Conditions: endpoint: median survival time, higher = longer survival. The gist of the method: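 Mice carrying the transplanted tumor received test compound or vehicle. Survival was recorded in each group, and the value is the treated-group measurement divided by that of the vehicle-treated control group.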

Where [1] appears, read: dose: 60.0 mg/kg/injection, schedule: Q01DX005 (ip), vehicle: Klucel (hydroxypropylcellulose) (HPC).
Where [2] appears, read: dose: 50.0 mg/kg/injection, schedule: Q01DX009 (ip), vehicle: saline with Tween-80.
The mark [3] stands for this setting: dose: 50.0 mg/kg/injection, schedule: Q01DX009 (ip), vehicle: saline.
The mark [4] stands for this setting: dose: 50.0 mg/kg/injection, schedule: Q01DX005 (ip), vehicle: saline with Tween-80.
Setting [5] is: dose: 100.0 mg/kg/injection, schedule: Q01DX005 (ip), vehicle: saline with Tween-80.
The mark [6] stands for this setting: dose: 200.0 mg/kg/injection, schedule: Q01DX005 (ip), vehicle: saline with Tween-80.
[7] abbreviates: dose: 100.0 mg/kg/injection, schedule: Q04DX003 (ip), vehicle: saline with Tween-80.
The mark [8] stands for this setting: dose: 200.0 mg/kg/injection, schedule: Q04DX003 (ip), vehicle: saline with Tween-80.
Setting [9] is: dose: 120.0 mg/kg/injection, schedule: Q01DX005 (ip), vehicle: Klucel (hydroxypropylcellulose) (HPC).
[10] abbreviates: dose: 240.0 mg/kg/injection, schedule: Q01DX005 (ip), vehicle: Klucel (hydroxypropylcellulose) (HPC).
Where [11] appears, read: dose: 60.0 mg/kg/injection, schedule: Q01DX005 (ip), vehicle: saline with Tween-80.
The mark [12] stands for this setting: dose: 120.0 mg/kg/injection, schedule: Q01DX005 (ip), vehicle: saline with Tween-80.
Setting [13] is: dose: 200.0 mg/kg/injection, schedule: Q01DX009 (ip), vehicle: saline with Tween-80.

Take `CC1NC(=O)C(NC(=O)c2cnc3ccccc3n2)COC(=O)C(C(C)C)NC(=O)C2CSSCC(NC1=O)C(=O)NC(C(C)C)C(=O)OCC(NC(=O)c1cnc3ccccc3n1)C(=O)NC(C)C(=O)N2` (centres undefined) (I: Quinoxaline2carbonyl-SACV / II: Quinoxaline2carbonyl-SACV; ester I:1-II:C, I:C-II:1; disulfide I:3-II:3; configuration not given here): the T/C was 96 % of control (dose: 1.25 mg/kg/injection, schedule: Q01DX005 (ip), vehicle: Klucel (hydroxypropylcellulose) (HPC)); 98 % of control (dose: 2.5 mg/kg/injection, schedule: Q01DX005 (ip), vehicle: Klucel (hydroxypropylcellulose) (HPC)); 95 % of control (dose: 5.0 mg/kg/injection, schedule: Q01DX005 (ip), vehicle: Klucel (hydroxypropylcellulose) (HPC)); 90 % of control (dose: 10.0 mg/kg/injection, schedule: Q01DX005 (ip), vehicle: Klucel (hydroxypropylcellulose) (HPC)); 95 % of control (dose: 20.0 mg/kg/injection, schedule: Q01DX005 (ip), vehicle: Klucel (hydroxypropylcellulose) (HPC)); 93 % of control (dose: 40.0 mg/kg/injection, schedule: Q01DX005 (ip), vehicle: Klucel (hydroxypropylcellulose) (HPC)). Moreover, under setting [1], the T/C was 95 % of control.
In the case of `CCC1C[N+]2(C)CCc3cc(OC)c(OC)cc3C2CC1=O` (centres undefined), the T/C (dose: 12.5 mg/kg/injection, schedule: Q01DX009 (ip), vehicle: saline) is 94 % of control; the T/C (dose: 25.0 mg/kg/injection, schedule: Q01DX009 (ip), vehicle: saline) is 93 % of control; the T/C under setting [2] was 106 % of control; the T/C under setting [3] was 100 % of control.
For `CN1C2CCC1CC(=NOS(=O)(=O)CC13CCC(CC1=O)C3)C2` (centres undefined), the T/C is, setting by setting: (dose: 50.0 mg/kg/injection, schedule: Q01DX005 (ip), vehicle: saline) 100 % of control; (dose: 100.0 mg/kg/injection, schedule: Q01DX005 (ip), vehicle: saline) 103 % of control; (dose: 200.0 mg/kg/injection, schedule: Q01DX005 (ip), vehicle: saline) 115 % of control.
Consider `C[Si](C)(C)C#CC(OS(=O)(=O)C(F)(F)F)=C(c1ccccc1)c1ccccc1`, for which the T/C was 98 % of control under setting [4], 99 % of control under setting [5] and 92 % of control under setting [6].
On to `CC(=O)C1=CN(Cc2ccccc2)C=C(C)C1`, for which the T/C by setting is: under setting [3], 99 % of control; (dose: 100.0 mg/kg/injection, schedule: Q01DX009 (ip), vehicle: saline) 96 % of control; (dose: 200.0 mg/kg/injection, schedule: Q01DX009 (ip), vehicle: saline) 96 % of control.
Consider `COC(=O)C(NC(N)=O)SC` (centres undefined), for which the T/C is, setting by setting: (dose: 50.0 mg/kg/injection, schedule: Q04DX003 (ip), vehicle: saline with Tween-80) 96 % of control; under setting [7], 100 % of control; under setting [8], 99 % of control.
With `C[C@@H]1C(=O)CC23COC(=O)C2=CCCC3[C@@]1(C)CCC1COC(=O)C1` (some centres undefined), the T/C (dose: 12.5 mg/kg/injection, schedule: Q01DX005 (ip), vehicle: distilled water + alcohol) is 100 % of control; the T/C (dose: 25.0 mg/kg/injection, schedule: Q01DX005 (ip), vehicle: distilled water + alcohol) is 100 % of control; the T/C (dose: 50.0 mg/kg/injection, schedule: Q01DX005 (ip), vehicle: distilled water + alcohol) was 106 % of control; the T/C (dose: 60.0 mg/kg/injection, schedule: Q01DX005 (ip), vehicle: distilled water + alcohol) is 101 % of control; the T/C (dose: 100.0 mg/kg/injection, schedule: Q01DX005 (ip), vehicle: distilled water + alcohol) was 107 % of control; the T/C (dose: 120.0 mg/kg/injection, schedule: Q01DX005 (ip), vehicle: distilled water + alcohol) is 108 % of control. Further, the T/C (dose: 240.0 mg/kg/injection, schedule: Q01DX005 (ip), vehicle: distilled water + alcohol) is 110 % of control.
Turning to `COc1cc(/C=C\C(=O)c2cccc(O)c(=O)c2)cc(OC)c1OC`, the T/C reads like this: (dose: 50.0 mg/kg/injection, schedule: Q01DX009 (ip), vehicle: Klucel (hydroxypropylcellulose) (HPC)) 112 % of control; (dose: 100.0 mg/kg/injection, schedule: Q01DX009 (ip), vehicle: Klucel (hydroxypropylcellulose) (HPC)) 87 % of control.
For `CN1C(=O)[C@@H]2N(N(C)C1=O)[C@@]1(Br)C(=O)NC(=O)[C@@]21Br`, the T/C by setting is: under setting [1], 97 % of control; under setting [9], 100 % of control; under setting [10], 91 % of control.
For the compound `COc1cc(C(c2cc3c(cc2O)OCO3)N2CCCC2)cc(OC)c1OC` (centres undefined), the T/C is 118 % of control under setting [1], 106 % of control under setting [9] and 101 % of control under setting [10].
For the compound `COC(=O)C/C(C(=O)OC)=C1\CCCC2=C1N1CCCC1C2(CC(=O)OC)C(=O)OC` (centres undefined), the T/C reads like this: (dose: 12.5 mg/kg/injection, schedule: Q01DX001 (ip), vehicle: Klucel (hydroxypropylcellulose) (HPC)) 97 % of control; (dose: 25.0 mg/kg/injection, schedule: Q01DX001 (ip), vehicle: Klucel (hydroxypropylcellulose) (HPC)) 98 % of control; (dose: 50.0 mg/kg/injection, schedule: Q01DX001 (ip), vehicle: Klucel (hydroxypropylcellulose) (HPC)) 100 % of control.
In the case of `Cc1ccc(S(=O)(=O)F)cc1C(=O)O`, the T/C was 101 % of control under setting [11] and 93 % of control under setting [12].
Regarding `CN(/N=C1\C(=O)Nc2ccccc21)c1ccccc1`, the T/C reads like this: under setting [4], 95 % of control; under setting [5], 93 % of control; under setting [6], 88 % of control.
For `CN1C(=O)CN(CN2CCOCC2)C1=O`, the T/C is 106 % of control (dose: 50.0 mg/kg/injection, schedule: Q01DX005 (ip), vehicle: Klucel (hydroxypropylcellulose) (HPC)); 115 % of control (dose: 100.0 mg/kg/injection, schedule: Q01DX005 (ip), vehicle: Klucel (hydroxypropylcellulose) (HPC)); 117 % of control (dose: 200.0 mg/kg/injection, schedule: Q01DX005 (ip), vehicle: Klucel (hydroxypropylcellulose) (HPC)).
`CCC1CN2CCc3cc(OC)c(OC)cc3C2CC12CO2` (centres undefined): the T/C reads like this: (dose: 12.5 mg/kg/injection, schedule: Q01DX009 (ip), vehicle: saline with Tween-80) 114 % of control; (dose: 25.0 mg/kg/injection, schedule: Q01DX009 (ip), vehicle: saline with Tween-80) 108 % of control; under setting [2], 96 % of control.
On to `CC(=O)NCC1(C)CCCC2(C)C3=CC(=O)C(C(C)C)=CC3(O)CCC12` (centres undefined), for which the T/C was 98 % of control (dose: 100.0 mg/kg/injection, schedule: Q01DX001 (ip), vehicle: Klucel (hydroxypropylcellulose) (HPC)); 90 % of control (dose: 200.0 mg/kg/injection, schedule: Q01DX001 (ip), vehicle: Klucel (hydroxypropylcellulose) (HPC)); 94 % of control (dose: 400.0 mg/kg/injection, schedule: Q01DX001 (ip), vehicle: Klucel (hydroxypropylcellulose) (HPC)).
Consider `O=C1NN=CC1CCCN=Cc1cc(Br)ccc1O` (centres undefined), for which the T/C by setting is: under setting [2], 96 % of control; (dose: 100.0 mg/kg/injection, schedule: Q01DX009 (ip), vehicle: saline with Tween-80) 104 % of control; under setting [13], 114 % of control.
Turning to `CCNC(=O)OCc1c(COC(=O)NCC)c2n(c1C)CCc1ccccc1-2`, the T/C was 157 % of control and 185 % of control (dose: 12.5 mg/kg/injection, schedule: Q01DX009 (ip), vehicle: distilled water + Tween-80); 166 % of control (dose: 25.0 mg/kg/injection, schedule: Q01DX009 (ip), vehicle: distilled water + Tween-80).
With `O=C(O)C1OC(N(O)c2ccc(Oc3ccc(Cl)cc3)cc2)C(O)C(O)C1O` (centres undefined), the T/C is 106 % of control under setting [11]; 100 % of control under setting [12]; 100 % of control (dose: 240.0 mg/kg/injection, schedule: Q01DX005 (ip), vehicle: saline with Tween-80).
In the case of `C[C@H]1C[C@@H]2[C@H]([C@@H](O)C[C@@]3(C)[C@H]2CC[C@]3(O)C(=O)CF)[C@@]2(C)C=CC(=O)C=C12`, the T/C reads like this: (dose: 10.0 mg/kg/injection, schedule: Q01DX009 (ip), vehicle: saline with Tween-80) 104 % of control; under setting [7], 100 % of control; under setting [13], 95 % of control; under setting [8], 100 % of control; (dose: 400.0 mg/kg/injection, schedule: Q01DX009 (ip), vehicle: saline with Tween-80) 86 % of control; (dose: 400.0 mg/kg/injection, schedule: Q04DX003 (ip), vehicle: saline with Tween-80) 100 % of control.
